In patent US7618953B2, “Amorphous forms of risedronate monosodium” (Zentiva, a.s., priority 2004, dated 2009):
Where a name gives a salt, the structure may show the parent alone.

Experiments:
[1] = Water content after storage on the open air; format: physicochemical; details: after one month storage on the open air at laboratory temperature; 1.7% of water when prepared
Description: 10 g of crystalline form of risedronate pentahydrate (according to WO 2004/037252) was dried at 110° C. for 20 hours. 8.2 g of the semi-crystalline form of risedronate sodium was obtained, which was characterized with X-ray powder diffraction (FIG. 9), ^13C and ^31P Cp MAS NMR spectra (FIGS. 7 and 8) and IR spectra (FIG. 6). Thus prepared semi-crystalline risedronate contained 1.7% of water. After one month storage on the open air at laboratory temperature the content of water increased to 3%.

physchem = details: 22 °C, water, thermodynamic from solid
[2] = 0.200 g suspended in 2 ml water at 22° C., water added dropwise at 0.2 ml/min until transparent solution
[3] = format: physicochemical; details: for time until a transparent solution was formed: 0.796 mmol in 100 ml stirred aqueous hydrochloric acid, pH 1.1, 40° C.
Description: Dissolution of Sodium Risedronate in Diluted Hydrochloric Acid
a) 0.273 g (0.796 mmol) of sodium risedronate pentahemihydrate (crystalline form A) according to WO 01/56983, having the water content 12.5%, was introduced into 100 ml of stirred aqueous solution of hydrochloric acid at pH 1.1 and temperature of 40° C. Within 30 seconds a transparent solution was formed.
b) 0.250 g (0,796 mmol) of semi-crystalline sodium risedronate according to Example 2 above, having the water content 3%, was introduced into 100 ml of stirred aqueous solution of hydrochloric acid at pH 1.1 and temperature of 40° C. Within less than 30 seconds a quite transparent solution was formed.

Row | Compound | content of water after storage [1] [%] | solubility (physchem) [mM] | total consumption of water for dissolution of the sample [2] [mL] | time until a transparent solution was formed [3] | precipitation on further stirring under constant conditions ([3]; aqueous hydrochloric acid pH 1.1, 40° C., stirred for further 15 mins) | time after formation of the transparent solution until a white suspension of poorly soluble risedronic acid started to precipitate ([3]; pH 1.1) [s]
1 | O=P(O)(O)C(O)(Cc1cccnc1)P(=O)(O)O [Example 2, monosodium salt of 3-pyridyl-1-hydroxyethylidene-1,1-bisphosphonic acid] | 3 | 255 | 2.5 | less than 30 seconds | without any observable precipitation | –
2 | O.O.O.O.O.O=P([O-])(O)C(O)(Cc1cccnc1)P(=O)(O)O.O=P([O-])(O)C(O)(Cc1cccnc1)P(=O)(O)O.[Na+].[Na+] [sodium risedronate pentahemihydrate, reference compound] | – | – | 3.5 | ≤ 30 s | – | ≤ 20
